Laboratory results: patent publication US11472825B2, “Real-time fluorescence imaging sensor for measuring glutathione in organelle and preparation method therefor” (CELL2IN, INC., priority 2017, dated 2022)

Assays:
[1] = tested on: glutathione in the Golgi apparatus of HeLa cells; test: High-throughput cell imaging of cells loaded with GolgiFreSH-tracer; assay type: cell-based
Protocol: 1-6. High-Throughput Cell Imaging
HeLa cells were cultured in DMEM (containing 10% heat-inactivated FBS (Hyclone), 100 U/ml of penicillin, 100 μg/ml of streptomycin sulfite and 2 mM glutamine and free of phenol red). HeLa cells were seeded in Greiner 96-well dishes (Sigma-Aldrich), and then cultured under the conditions of 37° C. and 5% CO2 for the indicated time. Before observation using a fluorescence microscope, the HeLa cells were incubated with a medium containing 10 μM of the GolgiFreSH-tracer for 0.5 to 1.5 hours. After washing twice with Hank's balanced salt solution, real-time images of the cells were acquired using an Operetta High-Content Imaging System (PerkinElmer). The imaging test was performed while the cells w ere incubated under the conditions of 37° C. and 5% CO2 in a chamber mounted in the microscope. The GolgiFreSH-tracer was excited with LED light at 410-430 nm and 490-510 nm, and the fluorescence of the tracer was detected through filters with 460-540 nm and 560-630 nm band intervals, respectively. BODIPY TR C5ceramide was excited with LED light at 560-580 nm, and the fluorescence thereof was detected through filters with 590-640 nm band intervals. Using the Harmony software, the experimental data were analyzed (see FIGS. 4, 5 and 8). […]

[2] = tested on: mitochondrial glutathione in HeLa cells; test: Real-time imaging of living cells loaded with MitoFreSH-tracer (confocal, F510/F580 ratio); assay type: cell-based
Protocol: 1-5. Real-Time Imaging of Living Cells
HeLa cells were cultured in DMEM (containing 10% heat-inactivated FBS (Hyclone), 100 U/ml of penicillin, 100 μg/ml of streptomycin sulfate and 2 mM glutamine aid free of phenol red). HeLa cells were seeded in 35 mm cover glass bottom dishes (SPL Life Sciences), and then cultured under the conditions of 37° C. and 5% CO2 for foe indicated time. Before observation using a fluorescence microscope, the HeLa cells were incubated with 2 mL of a medium containing 10 μM of the FreSH-tracer-derived compound for 0.5 to 1.5 hours. After washing twice with PBS, real-time images of the cells were acquired using a Nikon A1 laser scanning confocal microscope. […] The FreSH-tracer-derived compound was excited with laser beams at 403 nm and 488 nm, and the fluorescence of the tracer-derived compound was detected through filters with 500-550 nm and 570-620 nm band intervals, respectively. Using NIS-Elements AR software, the experimental data were analyzed and the ratio of fluorescence was imaged (see FIGS. 4 and 5).
The present inventors have studied the applicability of the MitoFreSH-tracer to examination of changes in mitochondrial glutathione levels in living cells. […] The sensor fluorescence intensity ratio calculated from images of the living cells was reduced by treatment with diamide (FIGS. 4B and 4C). […]

Compound	fluorescence intensity ratio of GolgiFreSH-tracer in living cells ([1]; living cells treated with various concentrations of diamide)	sensor fluorescence intensity ratio of GolgiFreSH-tracer in living cells ([1]; sensor-loaded living cells, 1 mM diamide)	sensor fluorescence intensity ratio (F510/F580) of MitoFreSH-tracer in living cells ([2]; HeLa cells loaded with MitoFreSH-tracer, 0.5 mM diamide)	fluorescence intensity ratio of MitoFreSH-tracer in living cells ([2]; cells treated with antimycin A for 75 minutes, various concentrations)
CN(C)C(=O)/N=N/C(=O)N(C)C [diamide, Diamide]	decreased depending on the concentration	reduced	reduced	–
Antimycin A	–	–	–	decreased depending on the concentration
